Laboratory results reported in US7135466B2 (Kirin Beer Kabushiki Kaisha, priority 1999, dated 2006).
pIC50: −log10 of the molar value. Like-named read-outs stand apart in the source and are kept apart here.

Tests used:
c-kit = molecular target: T1, c-kit (Homo sapiens, UniProt P10721); assay: Inhibitory activity against c-kit autophosphorylation (MO7e cells, h-SCF); format: cell-based; conditions: for pIC50: MO7e cells, read-out: c-kit IC50; for inhibition at 1 µM: Mo7e, at 1000 nM
T1 construct: MO7e (human megakaryocytic leukemia cell line) which had been arrested for 20 hr; endogenous in cells; host or cells: MO7e human megakaryocytic leukemia cell line
Procedure, shortened: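 MO7e cells, arrested for 20 hr, were pretreated with test compound in DMSO for 1 hr and then stimulated with 50 ng/ml h-SCF for 5 min before lysis. Lysates were captured on immobilized anti-phosphotyrosine PY-20, probed with anti-c-kit antibody and HRP anti-rabbit IgG, and read colorimetrically at 450 nm.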

PDGF-Ra = molecular target: T2, PDGF-Ra (Homo sapiens, UniProt P16234); assay: Inhibitory activity against PDGF-Ra phosphorylation by PDGF-AA stimulation using G292; format: cell-based; conditions: > means inhibition at indicated concentration not more than 50%, < and << not less than 50%, read-out: PDGF (E) IC50
T2 construct: host or cells: G-292 human osteosarcoma cells
Procedure, shortened: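 Phospho-PDGF-Ra ELISA: capture with PY-20 antiphosphotyrosine, detection with anti-PDGF-Ra and peroxidase secondary, read at 450 nm. Lysates came from G-292 osteosarcoma cells starved in 0.1% FBS, compound-treated 1 hr at 37° C, and stimulated with 50 ng/ml PDGF-AA for 5 min.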

[1] = figure within parentheses in −( ) or >1000( )

T1 sequence (P10721 26-976): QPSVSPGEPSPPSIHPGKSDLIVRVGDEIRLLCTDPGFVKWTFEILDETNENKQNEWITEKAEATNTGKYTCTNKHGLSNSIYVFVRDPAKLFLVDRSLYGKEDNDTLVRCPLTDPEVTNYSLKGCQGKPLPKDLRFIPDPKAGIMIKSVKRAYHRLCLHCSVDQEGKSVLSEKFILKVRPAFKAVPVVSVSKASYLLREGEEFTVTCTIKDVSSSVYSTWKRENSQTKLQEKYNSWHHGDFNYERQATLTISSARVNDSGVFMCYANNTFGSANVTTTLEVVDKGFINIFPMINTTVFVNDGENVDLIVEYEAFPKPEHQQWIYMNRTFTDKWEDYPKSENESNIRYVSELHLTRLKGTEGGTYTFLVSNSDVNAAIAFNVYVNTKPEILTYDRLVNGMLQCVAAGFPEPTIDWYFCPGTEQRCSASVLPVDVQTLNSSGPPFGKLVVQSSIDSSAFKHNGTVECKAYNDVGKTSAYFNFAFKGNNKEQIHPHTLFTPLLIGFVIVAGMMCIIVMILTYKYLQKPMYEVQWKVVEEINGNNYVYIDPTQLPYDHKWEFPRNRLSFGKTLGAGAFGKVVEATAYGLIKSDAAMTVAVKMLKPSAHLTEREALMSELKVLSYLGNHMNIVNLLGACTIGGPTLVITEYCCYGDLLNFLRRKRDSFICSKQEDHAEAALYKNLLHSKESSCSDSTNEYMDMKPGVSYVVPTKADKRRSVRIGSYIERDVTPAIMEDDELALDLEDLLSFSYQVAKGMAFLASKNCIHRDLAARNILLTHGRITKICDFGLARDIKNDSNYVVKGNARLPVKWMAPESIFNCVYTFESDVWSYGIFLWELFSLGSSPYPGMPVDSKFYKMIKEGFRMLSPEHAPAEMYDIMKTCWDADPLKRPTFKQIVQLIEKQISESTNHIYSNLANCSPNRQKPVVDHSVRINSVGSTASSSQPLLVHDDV
T2 sequence (P16234 24-1089): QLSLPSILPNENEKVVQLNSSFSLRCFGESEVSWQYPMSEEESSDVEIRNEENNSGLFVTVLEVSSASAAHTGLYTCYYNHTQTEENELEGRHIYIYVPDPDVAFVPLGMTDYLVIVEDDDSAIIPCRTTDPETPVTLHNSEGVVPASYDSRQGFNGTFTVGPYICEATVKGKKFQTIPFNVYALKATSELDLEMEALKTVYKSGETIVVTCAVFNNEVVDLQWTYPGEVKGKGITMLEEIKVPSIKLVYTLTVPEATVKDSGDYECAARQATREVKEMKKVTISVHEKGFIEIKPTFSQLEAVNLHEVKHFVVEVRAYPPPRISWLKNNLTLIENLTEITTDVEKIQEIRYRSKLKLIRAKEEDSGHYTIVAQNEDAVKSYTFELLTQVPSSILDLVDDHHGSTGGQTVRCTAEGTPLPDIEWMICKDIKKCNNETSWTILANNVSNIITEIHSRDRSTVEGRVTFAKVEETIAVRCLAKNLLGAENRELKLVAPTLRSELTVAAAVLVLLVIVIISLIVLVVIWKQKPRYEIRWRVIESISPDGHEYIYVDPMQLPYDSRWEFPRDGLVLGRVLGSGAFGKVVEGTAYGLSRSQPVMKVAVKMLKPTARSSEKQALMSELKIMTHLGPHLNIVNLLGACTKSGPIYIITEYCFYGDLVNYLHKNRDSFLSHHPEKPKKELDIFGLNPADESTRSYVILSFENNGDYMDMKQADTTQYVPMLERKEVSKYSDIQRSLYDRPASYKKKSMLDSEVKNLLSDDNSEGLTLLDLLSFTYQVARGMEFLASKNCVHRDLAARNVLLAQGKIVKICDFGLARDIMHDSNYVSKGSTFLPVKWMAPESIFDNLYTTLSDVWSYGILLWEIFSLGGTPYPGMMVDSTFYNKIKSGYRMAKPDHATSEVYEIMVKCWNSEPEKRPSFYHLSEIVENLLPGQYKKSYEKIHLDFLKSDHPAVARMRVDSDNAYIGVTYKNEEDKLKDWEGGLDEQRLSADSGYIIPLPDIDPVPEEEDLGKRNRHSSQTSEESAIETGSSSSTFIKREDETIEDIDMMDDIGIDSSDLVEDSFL

| pIC50 (c-kit; h-SCF 50 ng/ml) | pIC50 (PDGF-Ra; Pharmacological Test Example 1) | pIC50 (PDGF-Ra) | pIC50 (c-kit; 50 ng/ml h-SCF) | SMILES | other results |
| --- | --- | --- | --- | --- | --- |
| 7.07 | 7.72 |  |  | COc1cc2nccc(Oc3ccc(NC(=O)OCC4CCCC4)c(C)c3C)c2cc1OC [Example 396, Cyclopentylmethyl N-{4-[(6,7-dimethoxy-4-quinolyl)oxy]-2,3-dimethylphenyl}carbamate] |  |
| 6.63 | 7.55 |  |  | COc1cc2nccc(Oc3ccc(NC(=O)OCCCSc4ccc(C(C)(C)C)cc4)c(C)c3C)c2cc1OC [Example 73, 3-{[4-(Tert-butyl)phenyl]sulfanyl}-propyl N-{4-[(6,7-dimethoxy-4-quinolyl)oxy]-2,3-dimethylphenyl}carbamate] |  |
| > 7.52 | > 8.00 |  |  | COc1cc2nccc(Oc3ccc(NC(=O)OCCCOc4cccc(F)c4)c(C)c3C)c2cc1OC [Example 148, 3-(3-Fluorophenoxy)propyl N-{4-[(6,7-dimethoxy-4-quinolyl)oxy]-2,3-dimethylphenyl}carbamate] |  |
| 6.98 | 7.70 |  |  | COc1cc2nccc(Oc3cc(C)c(NC(=O)OCC4CCC4)cc3C)c2cc1OC [Example 386, Cyclobutylmethyl N-{4-[(6,7-dimethoxy-4-quinolyl)oxy]-2,5-dimethylphenyl}carbamate] |  |
|  |  | 7.55 |  | COc1cc2nccc(Oc3ccc(NC(=S)NC(=O)c4cccc(C)c4C)cc3)c2cc1OC [Example 1005, N-{4-[(6,7-Dimethoxy-4-quinolyl)oxy]phenyl}-N′-(2,3-dimethylbenzoyl)thiourea] | pIC50 (c-kit; h-SCF stimulation): 6.17 |
| 6.42 | > 8.00 |  |  | CCCCC(CC)OC(=O)Nc1ccc(Oc2ccnc3cc(OC)c(OC)cc23)c(C)c1C (stereo not shown) [Example 331, 1-Ethylpentyl N-{4-[(6,7-dimethoxy-4-quinolyl)oxy]-2,3-dimethylphenyl}carbamate] |  |
| 6.79 | 7.80 |  |  | COc1cccc(OCCCOC(=O)Nc2ccc(Oc3ccnc4cc(OC)c(OC)cc34)c(C)c2C)c1 [Example 162, 3-(3-Methoxyphenoxy)propyl N-{4-[(6,7-dimethoxy-4-quinolyl)oxy]-2,3-dimethylphenyl}carbamate] |  |
| 6.17 | > 8.00 |  |  | COc1cc2nccc(Oc3ccc(NC(=O)OC(C)c4cc(F)c(F)cc4F)cc3)c2cc1OC (stereo not shown) [Example 92, 1-(2,4,5-Trifluorophenyl)ethyl N-{4-[(6 7-dimethoxy-4-quinolyl)oxy]phenyl}carbamate] |  |
| 7.04 | 7.85 |  |  | COc1cc2nccc(Oc3ccc(NC(=O)OCCCc4ccccc4)c(C)c3C)c2cc1OC [Example 378, 3-Phenylpropyl N-{4-[(6,7-dimethoxy-4-quinolyl)oxy]-2,3-dimethylphenyl}carbamate] |  |
| 6.23 | 7.60 |  |  | COc1cc2nccc(Oc3cc(C)c(NC(=O)OC(C)c4ccc(F)cc4)cc3C)c2cc1OC (stereo not shown) [Example 104, 1-(4-Fluorophenyl)ethyl N-{4-[(6,7-dimethoxy-4-quinolyl)oxy]-2,5-dimethylphenyl}carbamate] |  |
| 6.60 | 7.80 |  |  | COc1cc2nccc(Oc3ccc(NC(=O)OCCc4cccc(C(F)(F)F)c4)c(C)c3C)c2cc1OC [Example 83, 3-(Trifluoromethyl)phenethyl N-{4-[(6,7-dimethoxy-4-quinolyl)oxy]-2,3-dimethylphenyl]carbamate] |  |
|  |  | 7.82 | 6.20 | CCCC(CCN(CC)CC)OC(=O)Nc1ccc(Oc2ccnc3cc(OC)c(OC)cc23)c(C)c1C (stereo not shown) [Example 443, 1-[2-(Diethylamino)ethyl]butyl N-{4-[(6,7-dimethoxy-4-quinolyl)oxy]-2,3-dimethylphenyl}carbamate] |  |
|  |  | 7.04 | 6.36 | COc1cc2nccc(Oc3cc(C)c(NC(=O)OC4CCCN(C)C4)cc3C)c2cc1OC (stereo not shown) [Example 463, 1-Methyl-3-piperidyl N-{4-[(6,7-dimethoxy-4-quinolyl)oxy]-2,5-dimethylphenyl}carbamate] |  |
|  | 7.72 |  |  | COc1cc2nccc(Oc3ccc(NC(=O)OC(C)c4cccc(C(F)(F)F)c4)c(C)c3C)c2cc1OC (stereo not shown) [Example 88, 1-[3-(Trifluoromethyl)phenyl]ethyl N-{4-[(6,7-dimethoxy-4-quinolyl)oxy]-2,3-dimethylphenyl}carbamate] | inhibition at 1 µM (c-kit; figure in parentheses in −( )): 45% |
|  | 7.39 |  |  | CCC(OC(=O)Nc1ccc(Oc2ncnc3cc(OC)c(OC)cc23)cc1Cl)c1ccccc1 (stereo not shown) [Example 346, 1-Phenylpropyl N-{2-chloro-4-[(6,7-dimethoxy-4-quinazolinyl)oxy]phenyl}carbamate] | inhibition at 1 µM (c-kit; figure in parentheses in −( )): 37% |
| 7.28 | 7.74 |  |  | COc1cc2nccc(Oc3ccc(NC(=O)OCCOc4cccc(F)c4)c(C)c3C)c2cc1OC [Example 208, 2-(3-Fluorophenoxy)ethyl N-{4-[(6,7-dimethoxy-4-quinolyl)oxy]-2,3-dimethylphenyl}carbamate] |  |

Continued, compound first:

| SMILES | pIC50 (c-kit; h-SCF 50 ng/ml) | pIC50 (PDGF-Ra; Pharmacological Test Example 1) | pIC50 (PDGF-Ra) | pIC50 (c-kit; 50 ng/ml h-SCF) | other results |
| --- | --- | --- | --- | --- | --- |
| COc1cccc(OCCCOc2ccc(Oc3ncnc4cc(OC)c(OC)cc34)cc2)c1 [Example 809, 6,7-Dimethoxy-4-{4-[3-(3-methoxyphenoxy)propoxy]phenoxy}quinazoline] |  |  | > 8.00 |  | pIC50 (c-kit; h-SCF stimulation): 7.14 |
| COc1cccc(CNC(=O)COc2ccc(Oc3ncnc4cc(OC)c(OC)cc34)cc2)c1 [Example 801, N1-(3-Methoxybenzyl)-2-{4-[(6,7-dimethoxy-4-quinazolinyl)oxy]phenoxy}acetamide] |  |  | 7.89 | 7.15 |  |
| COc1cc2ncnc(Oc3ccc(NC(=O)NCCN4CCCCC4)c(Cl)c3)c2cc1OC [Example 677, N-{2-Chloro-4-[(6,7-dimethoxy-4-quinazolinyl)oxy]phenyl}-N′-(2-piperidinoethyl)urea] |  |  | 7.33 | 6.14 |  |
| COc1cc2ncnc(Oc3ccc(NC(=O)NCCN4CCOCC4)cc3)c2cc1OC [Example 629, N-{4-[(6,7-Dimethoxy-4-quinazolinyl)oxy]phenyl}-N′-(2-morpholinoethyl)urea] |  |  | > 8.00 | 6.32 |  |
| COc1cc2ncnc(Oc3ccc(NC(=S)NC(=O)Cc4ccccc4Cl)cc3)c2cc1OC [Example 724, N-[2-(2-Chlorophenyl)acetyl]-N′-{4-[(6,7-dimethoxy-4-quinazolinyl)oxy]phenyl}thiourea] |  |  | > 8.00 | 6.94 |  |
| COc1cc2nccc(Oc3ccc(NC(=O)Oc4ccccc4C(C)(C)C)c(C)c3C)c2cc1OC [Example 302, 2-(Tert-butyl)phenyl N-{4-[(6,7-dimethoxy-4-quinolyl)oxy]-2,3-dimethylphenyl}carbamate] | 6.69 | 7.92 |  |  |  |
| COc1cc2ncnc(Oc3ccc(NC(=O)NCCN(C(C)C)C(C)C)c(Cl)c3)c2cc1OC [Example 657, N-{2-Chloro-4-[(6,7-dimethoxy-4-quinazolinyl)oxy]phenyl}-N′-[2-(diisopropylamino)ethyl]urea] |  |  | 7.40 |  | inhibition at 1 µM (c-kit; [1]): 27% |
| COc1cc2ncnc(Oc3ccc(NC(=O)OC4CCCCC4)c([N+](=O)[O-])c3)c2cc1OC [Example 503, Cyclohexyl N-{4-[(6,7-dimethoxy-4-quinazolinyl)oxy]-2-nitrophenyl}carbamate] |  |  | 7.06 |  | inhibition at 1 µM (c-kit; [1]): 36% |
| COc1cc2nccc(Oc3ccc(OCCCOc4ccccc4OC)cc3)c2cc1OC [Example 795, 6,7-Dimethoxy-4-{4-[3-(2-methoxy-phenoxy)propoxy]phenoxy}quinoline] |  |  | 8.30 | 6.47 |  |
| COc1cc2ncnc(Oc3ccc(NC(=O)OCC4CCCCCC4)c([N+](=O)[O-])c3)c2cc1OC [Example 506, Cycloheptylmethyl N-{4-[(6,7-dimethoxy-4-quinazolinyl)oxy]-2-nitrophenyl}carbamate] |  |  | 7.13 | 6.43 |  |
| COc1cc2nccc(Oc3ccc(NC(=S)NC(=O)N4CCOCC4)cc3Cl)c2cc1OC [Example 1052, N-{3-Chloro-4-[(6,7-dimethoxy-4-quinolyl)oxy]phenyl}-N′-morpholinocarbonylthiourea] |  |  | 7.68 |  | pIC50 (c-kit; h-SCF stimulation): 6.39 |
| COc1cc2ncnc(Oc3ccc(N(C)C(=O)OCc4ccccc4C)c(Cl)c3)c2cc1OC [Example 479, 2-Methylbenzyl N-{2-chloro-4-[(6,7-dimethoxy-4-quinazolinyl)oxy]phenyl}-N-methylcarbamate] |  |  | 7.89 |  | inhibition at 1 µM (c-kit; [1]): 17% |
| CCN(CC)CCNC(=O)Nc1cc(C)c(Oc2ccnc3cc(OC)c(OC)cc23)cc1C [Example 623, N-[2-(Diethylamino)ethyl]-N′-{4-[(6,7-dimethoxy-4-quinolyl)oxy]-2,5-dimethylphenyl}urea] |  |  | 7.05 | 6.20 |  |
| COc1cc2nccc(Oc3ccc(NC(=O)NN4CCCCCC4)cc3)c2cc1OC [Example 608, N-{4-[(6,7-Dimethoxy-4-quinolyl)oxy]phenyl}-N′-(1-homopiperidinyl)urea] |  |  | > 8.00 | 6.70 |  |
| COc1cc2nccc(Oc3cc(C)c(NC(=O)OCCCCCCN(C)C)cc3C)c2cc1OC [Example 310, 6-(Dimethylamino)hexyl N-{4-[(6,7-dimethoxy-4-quinolyl)oxy]-2,5-dimethylphenyl}carbamate] | 6.22 | 7.17 |  |  |  |
| COc1cc2nccc(Oc3ccc(NC(=S)NC(=O)CCC4CCCC4)cc3Cl)c2cc1OC [Example 1030, N-{3-Chloro-4-[(6,7-dimethoxy-4-quinolyl)oxy]phenyl}-N′-(3-cyclopentylpropanoyl)thiourea] |  |  | 7.85 |  | pIC50 (c-kit; h-SCF stimulation): 6.47 |
